From the NIST ThermoML archive (doi:10.1016/j.fluid.2011.08.009)
± gives the expanded uncertainty stated by the source.

Conditions: Liquid, Closed cell (Static) method

Row | SMILES | vapor or sublimation pressure (313.17 K) [kPa] | vapor or sublimation pressure (342.83 K) [kPa] | vapor or sublimation pressure (352.68 K) [kPa] | vapor or sublimation pressure (342.18 K) [kPa] | vapor or sublimation pressure (323.18 K) [kPa] | vapor or sublimation pressure (329.22 K) [kPa]
1 | CCCCCCCCCCCC [dodecane] |  |  | 0.75 ± 0.1 | 0.36 ± 0.1 |  | 
2 | CCC(C)O (stereo not drawn) [butan-2-ol] |  | 28.43 ± 0.28 | 44.66 ± 0.35 |  | 10.74 ± 0.16 | 14.55 ± 0.21

Other lines, results leading:

Row | vapor or sublimation pressure (313.17 K) [kPa] | vapor or sublimation pressure (342.83 K) [kPa] | vapor or sublimation pressure (352.68 K) [kPa] | vapor or sublimation pressure (342.18 K) [kPa] | vapor or sublimation pressure (323.18 K) [kPa] | vapor or sublimation pressure (329.22 K) [kPa] | SMILES
3 | 6.99 ± 0.19 | 31.45 ± 0.24 | 49.8 ± 0.4 |  |  |  | CCCO [propan-1-ol]
4 | 7.36 ± 0.14 | 30.65 ± 0.22 |  |  | 12.18 ± 0.19 |  | O [water]
5 |  |  |  |  |  | 65.63 ± 0.67 | CCCCCC [hexane]
